Results from ChEMBL document CHEMBL4725228, “An aza-nucleoside, fragment-like inhibitor of the DNA repair enzyme alkyladenine glycosylase (AAG)” (Bioorg Med Chem, 2020).
The source made the active and inactive calls. No cut-off for these calls is given here.

Target: DNA-3-methyladenine glycosylase (Homo sapiens, UniProt P29372)
Test: Inhibition of human AAG using HXO2/Loop01 oligonucleotide as substrate incubated for 2 hrs by colorimetric based microplate assay

Chain of DNA-3-methyladenine glycosylase (P29372 whole entry): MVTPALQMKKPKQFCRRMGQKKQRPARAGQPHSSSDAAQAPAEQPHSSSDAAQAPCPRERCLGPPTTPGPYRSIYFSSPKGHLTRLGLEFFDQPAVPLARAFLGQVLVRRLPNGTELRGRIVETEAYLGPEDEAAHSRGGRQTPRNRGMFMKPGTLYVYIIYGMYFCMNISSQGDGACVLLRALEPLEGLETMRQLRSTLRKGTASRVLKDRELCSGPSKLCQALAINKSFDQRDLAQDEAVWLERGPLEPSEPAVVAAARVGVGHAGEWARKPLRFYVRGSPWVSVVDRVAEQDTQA

Row | SMILES | inhibition | IC50
1 | OC[C@H]1CN(Cc2cccnc2)C[C@@H]1O | Active | 
2 | OC[C@H]1CN(Cc2ccccn2)C[C@@H]1O | Active | 
3 | OC[C@H]1CN(Cc2ccncc2)C[C@@H]1O | Active | 
4 | OC[C@H]1CN(Cc2c[nH]cn2)C[C@@H]1O |  | 157 µM
5 | OC[C@H]1CN(Cc2ncc[nH]2)C[C@@H]1O | Active | 
